One data set deals with L. donovani. On the set-up: method as in PMID 21358812. The conditions noted are these: ex vivo splenic explant model system; read-out: IC50 against L. donovani; cited from earlier work.
In data set [1] the test system is choline uptake into rat brain synaptosomes. On the set-up: method as in PMID 6124978. Conditions: 1 µM concentration; cited from earlier work.
For the next data set, the system named is Bacillus subtilis. On the set-up: method as in PMID 3653383. Conditions: cited from earlier work.
Data set [2] has as its system Mycobacterium tuberculosis. On the set-up: method as in PMID 3653383. The conditions noted are these: cited from earlier work.
The subject of the next data set is PMA-differentiated THP-1. The data set is described as follows: Cytotoxicity against PMA-differentiated THP-1 cells (MTT). It counts as cell-based, human. Conditions: CC50 THP-1 / IC50 L. infantum amastigotes. The protocol: (§1) The cytotoxic concentration (CC50) against THP-1 differentiated into macrophages (Table 3), used for testing the activity against the amastigote stage, is also reported.
(§2) THP-1 cells were plated at 5 × 10^5 cells/mL in 96 wells flat bottom microplates and treated with 0.1 µM PMA for 48 h to achieve differentiation into macrophages. Cells were then treated with serial dilutions of test compounds and cell proliferation evaluated using the MTT assay described for promastigotes.

Experiment in data set [3]: as above
Type of data set: cell-based, human. Conditions: human. On the procedure: as §1, §2

For data set [4] the following is noted: i.p., doses up to 200–350 mg/kg, once a day for five consecutive days, mice inoculated with leukemia P388 cells; cited from earlier work.
The test system of data set [5] is Leishmania tropica promastigotes. The data set is described as follows: Antileishmanial activity against L. tropica promastigotes (MTT assay). The conditions noted are these: for IC50: 72 h, IC50 ± SD; for Ratio IC50 Miltef./IC50 Compd. (L. tropica): ratio between IC50 of miltefosine and that of each compound, L. tropica promastigotes.
Protocol: Promastigote stage of L. infantum strain MHOM/TN/80/IPT1 (kindly provided by Dr. M. Gramiccia, ISS, Roma) and L. tropica (MHOM/SY/2012/ISS3130) were cultured in RPMI 1640 medium (EuroClone) supplemented with 10% heat-inactivated fetal calf serum (EuroClone, Milan Italy), 20 mM Hepes and 2 mM L-glutamine at 24 °C. […] Compounds were dissolved in DMSO and then diluted with medium to achieve the required concentrations. Drugs were placed in 96 wells round-bottom microplates and seven serial dilutions made. Miltefosine was used as reference anti-Leishmania drug. Parasites were diluted in complete medium to 5 × 10^6 parasites/mL and 100 μL of the suspension was seeded into the plates, incubated at 24 °C for 72 h and then 20 µL of MTT solution (5 mg/mL) was added into each well for 3 h. The plates were then centrifuged, the supernatants were discarded and the resulting pellets were dissolved in 100 µL of lysing buffer consisting of 20% (w/v) of a solution of SDS (Sigma), 40% DMF (Merck, Milan Italy) in H2O. The absorbance was measured spectrophotometrically at a test wavelength of 550 nm and a reference wavelength of 650 nm.
The subject of data set [6] is L. infantum promastigotes. Nature of the data set: Antileishmanial activity against L. infantum promastigotes (MTT assay). The conditions noted are these: for IC50: Leishmania infantum, 72 h, read-out: IC50 L. infantum; for Ratio IC50 Miltef./IC50 Compd. (L. infantum): ratio between IC50 of miltefosine and that of each compound, L. infantum promastigotes.
Another data set has as its system Staphylococcus aureus. On the set-up: method as in PMID 3653383. Conditions: cited from earlier work.
The next data set concerns Vero-76 cells. Nature of the data set: Cytotoxicity against Vero-76 cells (crystal violet staining). Type of data set: cell-based, Cercopithecus Aethiops. Conditions: for S.I. L. tropica: CC50 Vero-76 / IC50 L. tropica promastigotes. On the procedure:
(§3) The cytotoxicity of lucanthone was also tested for comparison. […] The relevant selectivity index (SI)—a parameter that quantifies the preferential antileishmanial activity of a compound in relation to mammalian cell toxicity (CC50/IC50)—is tabulated in Table 2. […] The replacement of the 4-methyl substituent with an amino group in compound 14, while preserving good antileishmanial activity, led to a further substantial decrease of cytotoxicity, with a resultantly safer profile (SI = 16.2 and 16.9 for the two Leishmania species).
(§4) Vero-76 cells (ATCC CRL 1587 Cercopithecus Aethiops) were seeded at an initial density of 4 × 10^5 cells/mL in 24-well plates, in culture medium (Dulbecco’s modified eagle’s medium (D-MEM) with L-glutamine, supplemented with fetal bovine serum (FBS), 0.025 g/L kanamycin). Cell cultures were then incubated at 37 °C in a humidified, 5% CO2 atmosphere in the absence or presence of serial dilutions of test compounds. Cell viability was determined after 48–96 h at 37 °C by the Crystal violet staining method. The results are expressed as CC50, which is the concentration of compound necessary to inhibit cell growth by 50%. Each CC50 value is the mean and standard deviation of at least three separate experiments performed in duplicate.

Experiment in data set [7]: as above
Type of data set: cell-based, Cercopithecus Aethiops. The conditions noted are these: Cercopithecus aethiops (African green monkey). On the procedure: as §3, §4

For data set [8], the system named is intramacrophagic amastigotes of L. infantum. Nature of the data set: Intracellular amastigote susceptibility assay in PMA-differentiated THP-1 macrophages. It counts as cell-based. Conditions: Leishmania infantum, read-out: L. infantum Amastigotes IC50. On the procedure: Finally, for a better idea of their real value as antileishmanial agents, compounds 14 and 17, displaying the most promising activity against promastigote stage and the highest SI values, together with lucanthone and the corresponding quinolizidine analog 1, were tested against the intramacrophagic amastigote stage of L. infantum.
THP-1 cells (human acute monocytic leukemia) were maintained in RPMI supplemented with 10% FBS (EuroClone), 50 µM 2-mercaptoethanol, 20 mM Hepes and 2 mM glutamine, at 37 °C in 5% CO2. For Leishmania infections, THP-1 cells were plated at 5 × 10^5 cells/mL in 16-chamber Lab-Tek culture slides (Nunc, Milan, Italy) and treated with 0.1 µM phorbol myristate acetate (PMA, Sigma) for 48 h to achieve differentiation into macrophages. Cells were washed and infected with metacyclic L. infantum promastigotes at a macrophage/promastigote ratio of 1/10 for 24 h. Cell monolayers were then washed and incubated in the presence of test compounds for 72 h. Slides were fixed with methanol and stained with Giemsa. The percentages of infected macrophages among treated and non-treated cells were determined by light microscopy.

Data set [9] has as its system rat skeletal myoblast cells (L6). The data set is described as follows: Cytotoxicity on rat skeletal myoblast cells (L6). Type of data set: cell-based.
The test system is the same in data set [10]. The conditions noted are these: cited from earlier work.
The test system of a further data set is AChE. On the set-up: method as in PMID 3707621, PMID 25924599, PMID 21459491. Conditions: cited from earlier work.
The subject of data set [11] is intramacrophagic L. tropica amastigotes. On the set-up: method as in PMID 6312823. Conditions: cited from earlier work.
Details of data set [12]: method as in PMID 4954156, PMID 4633870. Conditions: bacteria not specified; cited from earlier work.
The test system of another data set is BChE. On the set-up: method as in PMID 3707621, PMID 25924599, PMID 21459491. The conditions noted are these: cited from earlier work.
The mark [13] stands for this setting: Leishmania tropica, read-out: IC50 L. tropica, promastigotes, MTT, 72 h.

Values after ≈ are worked out from the molar mass of the structure shown. Where two headings read alike, the source gives them in different places. A value given as a limit tells only on which side of the number the result lay.

For `O=c1c2ccccc2sc2c(CO)ccc(CCN3CCCCC3)c12` [1-(piperidinoethyl)-4-hydroxymethylthioxanthen-9-one], in the data set with L. donovani, the IC50 was 9.1 µM.
For `CN(C)CCC=C1c2ccccc2CCc2ccccc21` [Amitriptyline], the “inhibition of choline uptake into rat brain synaptosomes” value in [1] is on record as “completely ineffective”.
With `Cc1ccc(NC[C@@H]2CCCN3CCCC[C@H]23)c2c(=O)c3ccccc3sc12` [Compound 1], the “MIC Bacillus subtilis” value in the data set with Bacillus subtilis is given as 2.5 µg/mL; with Bacillus subtilis (converted from µg/mL), 6.63 µM. For the same molecule, the “MIC Mycobacterium tuberculosis” value in [2] is reported as 1.25 µg/mL; in data set [2] (converted from µg/mL), 3.32 µM. The “SI (THP-1)” value with PMA-differentiated THP-1 is listed as 8.0. In addition, the figures for the CC50 in [3] and in data set [7] were 28 ± 8 µM and 23.5 ± 1.8 µM, respectively. Also, in data set [4], the mortality result is “no mortality”. The IC50 in [5] (setting [13]) is 3.36 ± 1.53 µM; in data set [6], 3.87 ± 1.53 µM; in [8] (intramacrophagic amastigotes in THP-1 macrophages, 72 h, mean ± SD), 3.49 ± 0.18 µM. In addition, the “Ratio IC50 Miltef./IC50 Compd. (L. tropica)” value in data set [5] was 12.9. Also, in data set [6], the “Ratio IC50 Miltef./IC50 Compd. (L. infantum)” value was found to be 8.1. Further, the results for the “MIC Staphylococcus aureus” value with Staphylococcus aureus and in the data set with Staphylococcus aureus (converted from µg/mL) were 2.5 µg/mL and 6.63 µM, respectively. The “S.I. L. tropica” value with Vero-76 cells stood at 7.0.
`COc1ccc2sc3c(C)ccc(NCCC4CCCN5CCCCC45)c3c(=O)c2c1` (centres unmarked) [Compound 6]: the “selectivity index (SI) L6 vs L. infantum” value in data set [9] (CC50 L6 / IC50 L. infantum) was at most 3. Further, in [9] (CC50 L6 / IC50 L. tropica), the “selectivity index (SI) L6 vs L. tropica” value came to 4.8. The mortality result in [4] is “no mortality”. The IC50 in [5] (setting [13]) is 28.4 ± 14.3 µM; in data set [6], above 46 µM. For the same molecule, the “Ratio IC50 Miltef./IC50 Compd. (L. tropica)” value in data set [5] was found to be 1.5. Further, the “Ratio IC50 Miltef./IC50 Compd. (L. infantum)” value in [6] was below 0.7. Besides, in data set [10], the CC50 was 137 µM.
On to `C(=C1c2ccccc2CCc2ccccc21)[C@@H]1CCCN2CCCC[C@H]12` [Compound 18, lupinylidene dibenzocycloheptadiene], for which the “inhibition of choline uptake into rat brain synaptosomes” value in data set [1] was “inhibit the choline uptake”. Besides, in [5] (setting [13]), the IC50 was found to be 24.2 ± 3.58 µM. Further, the “Ratio IC50 Miltef./IC50 Compd. (L. tropica)” value in [5] is on record as 1.8. Moreover, in data set [6], the IC50 is 25.2 ± 1.92 µM and the “Ratio IC50 Miltef./IC50 Compd. (L. infantum)” value worked out at 1.24.
Regarding `CCN(CC)CCNc1ccc(C)c2sc3ccccc3c(=O)c12` [Lucanthone], the “IC50 AChE inhibition” value with AChE was “low micromolar and sub-micromolar range”. Further, the “IC50 against intramacrophagic L. tropica amastigotes” value in [11] is recorded as 0.93 µg/mL (≈ 2.73 µM). Further, the IC50 in [11] (converted value in brackets, read-out: IC50 against intramacrophagic L. tropica amastigotes) was 2.47 µM; in data set [5] (setting [13]) it was 2.5 µM; in [5] (read-out: IC50 L. tropica, promastigotes, MTT), 2.57 ± 1.03 µM; in data set [6], 3.5 ± 1.17 µM; in data set [8] (THP-1, 72 h), 3.43 ± 0.93 µM. Also, the “SI (THP-1)” value with PMA-differentiated THP-1 is on record as 4.4. In addition, the CC50 in data set [3] (PMA-differentiated THP-1, mean ± SD, read-out: THP-1 CC50) was found to be 15.2 ± 0.27 µM; in data set [7] (Vero-76 monolayers, CC50 ± SD, read-out: CC50 Vero-76), 12.4 ± 2.1 µM. Also, in data set [5], the “Ratio IC50 Miltef./IC50 Compd. (L. tropica)” value is reported as 16.8. Also, in data set [6], the “Ratio IC50 Miltef./IC50 Compd. (L. infantum)” value turned out to be 8.9. For the same molecule, the “MIC (antibacterial activity)” value in [12] is 30 to 60 µM. In addition, the “S.I. L. infantum” value in the data set with Vero-76 cells (CC50 Vero-76 / IC50 L. infantum promastigotes) came to 3.5. In addition, the “S.I. L. tropica” value with Vero-76 cells was found to be 4.8. Also, the “IC50 BChE inhibition” value with BChE was “low micromolar and sub-micromolar range”.

The values are drawn from article PMC7694037, “Quinolizidine-Derived Lucanthone and Amitriptyline Analogues Endowed with Potent Antileishmanial Activity” (Pharmaceuticals, 2020).
